Assay results as given in US7951962B2, “Organic semiconductor compound, organic semiconductor thin film, organic semiconductor coating liquid, organic thin film transistor, methods for producing bis(benzo[4,5] thieno)[2,3-B:3′2′-E][1,4]dithin and bis(benzo [4,5]thieno)[2,3-B:2′3′-E][1,4]dithiin” (Seiko Epson Corporation, priority 2006, dated 2011).

Legend:
Solvent solubility = format: physicochemical
Excerpt: The solvent for dissolving the organic semiconductor compound material according to the embodiment may be a hydrocarbon, an alcohol, an ether, an ester, a halogen, a ketone, […], the BTX, a non-proton polar solvent or a mixture solvent thereof. The hydrocarbon may be hexane, heptane, octane or cyclohexane, for example. The alcohol may be methanol, ethanol, (iso-)propanol or butanol. The ether may be diethyl ether, tetrahydrofuran or dioxane and the ester may be ethyl acetate or butyl acetate. The halogen may be dichloromethane or chloroform and the ketone may be acetone or methyl ethyl ketone. The nitrile may be acetonitrile or methyl nitrile. The BTX is a mixture of benzene, toluene and xylene. The non-proton polar solvent may be dimethylsulfoxide (DMSO), dimethylformamide (DMF) or hexamethylphosphoramide (HMPA).
Based on logarithmic plotting in the graph, an ON/OFF ratio of the device was approximately […].

| solubility in solvent (Solvent solubility; the above-described solvent (hydrocarbon, alcohol, ether, ester, halogen, ketone, nitrile, BTX, non-proton polar solvent)) | melting point | Structure (SMILES) | solubility compared with known compounds (Solvent solubility; versus well-known low-molecular organic semiconductor compounds) |
| --- | --- | --- | --- |
| soluble in the above-described solvent | – | c1ccc2c3c(sc2c1)Sc1sc2ccccc2c1S3 [bis(benzo[4,5]thieno)[2,3-b: 3′2′-e][1,4]dithiin] | higher solubility than well-known low-molecular organic semiconductor compounds |
| – | 207 to 208.3 °C | c1ccc2c3c(sc2c1)Sc1c(sc2ccccc12)S3 [bis(benzo[4,5]thieno)[2,3-b: 2′3′-e][1,4]dithiin] | – |
